{"source": "ChEMBL document CHEMBL5331114", "about": "“Discovery of Pyxinol Amide Derivatives Bearing Amino Acid Residues as Nonsubstrate Allosteric Inhibitors of P-Glycoprotein-Mediated Multidrug Resistance” (J Med Chem, 2023)", "key": {"[1]": {"assay": "Cytotoxicity against human KBV Cells assessed as cell survival rate at 10 uM incubated for 72 hrs by MTT assay", "format": "functional", "settings": "read-out: Survival; call rule not given here"}, "P-gp (ABCB1) ATPase": {"molecular_target": "P-gp (ABCB1) ATPase (Homo sapiens, UniProt P08183)", "sequence (P08183 whole entry)": "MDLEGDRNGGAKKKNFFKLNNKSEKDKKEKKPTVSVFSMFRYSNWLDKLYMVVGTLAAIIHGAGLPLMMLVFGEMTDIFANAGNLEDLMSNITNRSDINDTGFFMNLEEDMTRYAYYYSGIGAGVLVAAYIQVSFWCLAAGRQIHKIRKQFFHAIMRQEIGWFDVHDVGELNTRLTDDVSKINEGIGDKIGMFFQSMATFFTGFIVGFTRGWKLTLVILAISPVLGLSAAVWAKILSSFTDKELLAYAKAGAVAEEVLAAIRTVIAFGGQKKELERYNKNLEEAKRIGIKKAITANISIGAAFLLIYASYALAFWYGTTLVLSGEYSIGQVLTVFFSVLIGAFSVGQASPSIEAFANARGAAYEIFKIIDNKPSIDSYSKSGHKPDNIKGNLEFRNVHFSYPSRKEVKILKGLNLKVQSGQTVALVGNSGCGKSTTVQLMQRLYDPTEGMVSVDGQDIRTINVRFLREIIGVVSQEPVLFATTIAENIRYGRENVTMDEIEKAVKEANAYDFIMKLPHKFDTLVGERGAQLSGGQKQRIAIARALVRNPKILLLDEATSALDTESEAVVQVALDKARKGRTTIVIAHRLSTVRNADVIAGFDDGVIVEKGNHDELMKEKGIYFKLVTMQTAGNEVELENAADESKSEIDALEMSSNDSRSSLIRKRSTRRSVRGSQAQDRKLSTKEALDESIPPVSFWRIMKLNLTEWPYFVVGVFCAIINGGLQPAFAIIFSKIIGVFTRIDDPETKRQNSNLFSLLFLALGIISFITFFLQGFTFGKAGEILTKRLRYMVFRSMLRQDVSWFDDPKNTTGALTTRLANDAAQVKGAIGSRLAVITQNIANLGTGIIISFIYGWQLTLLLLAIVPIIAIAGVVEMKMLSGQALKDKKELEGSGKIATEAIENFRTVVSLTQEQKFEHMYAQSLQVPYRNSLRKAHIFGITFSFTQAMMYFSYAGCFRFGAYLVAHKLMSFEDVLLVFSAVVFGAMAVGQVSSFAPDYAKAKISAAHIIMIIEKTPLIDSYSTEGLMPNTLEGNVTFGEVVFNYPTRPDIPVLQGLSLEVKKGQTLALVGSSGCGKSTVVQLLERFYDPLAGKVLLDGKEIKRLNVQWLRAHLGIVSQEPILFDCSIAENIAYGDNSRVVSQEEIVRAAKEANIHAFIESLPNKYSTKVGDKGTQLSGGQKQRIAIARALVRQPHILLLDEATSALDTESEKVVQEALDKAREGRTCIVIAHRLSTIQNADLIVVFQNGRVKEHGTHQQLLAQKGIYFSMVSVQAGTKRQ", "assay": "Negative allosteric modulator activity at human P-gp ATP synthase hydrolytic activity assessed as inhibition of basal Pgp-ATPase activity incubated for 60 mins in presence of ATP by Glo-luminescence based microplate reader assay relative to DMSO"}, "[2]": {"molecular_target": "T1, ATP-dependent translocase ABCB1 (Homo sapiens, UniProt P08183)", "T1 sequence (P08183 whole entry)": "as above", "assay": "Negative allosteric modulator activity at human P-gp ATP synthase hydrolytic activity assessed as inhibition of basal Pgp-ATPase activity at 0.5 mM incubated for 60 mins in presence of ATP by Glo-luminescence based microplate reader assay", "settings": "1 h, 500 µM"}, "[3]": {"assay": "Drug accumulation in human KBV cells at 10 uM incubated for 4 hrs by LC-MS/MS analysis", "format": "ADME, cell-based"}, "[4]": {"molecular_target": "T1, ATP-dependent translocase ABCB1", "assay": "Negative allosteric modulator activity at P-glycoprotein mediated Rhodamine-123 efflux in human KBV cells assessed as increase in intracellular Rhodamine-123 accumulation incubated for 2 hrs in presence of Ptx-C by flow cytometry analysis", "format": "cell-based"}, "[5]": {"molecular_target": "T1, ATP-dependent translocase ABCB1", "assay": "Negative allosteric modulator activity at P-glycoprotein in human KBV cells assessed as effect on P-gp protein expression level at 10 uM incubated for 72 hrs by Western blotting analysis", "format": "cell-based"}, "[6]": {"molecular_target": "T1, ATP-dependent translocase ABCB1", "assay": "Negative allosteric modulator activity at P-glycoprotein in human KBV cells assessed as effect on P-gp protein localization at 10 uM incubated for 48 hrs by immunofluorescence analysis", "format": "cell-based"}, "[7]": {"molecular_target": "T1, ATP-dependent translocase ABCB1", "assay": "Binding affinity to P-glycoprotein in human KBV cells assessed as stabilization of P-glycoprotein at 50 uM incubated for 26 hrs by western blot based cellular thermal shift assay", "format": "cell-based"}, "[8]": {"assay": "Induction of Ptx-mediated cell cycle arrest in human KBV cells assessed as accumulation of cells at S phase at 10 uM incubated for 24 hrs in presence of paclitaxel by flow cytometry analysis (Rvb =16.63 +/- 0.4%)", "format": "functional"}, "[9]": {"assay": "Chemo-sensitizing activity against Ptx-resistance human KBV cells xenografted in BALB/c mouse assessed as inhibition of tumor growth at 20 mg/kg,ip pre-treated with paclitaxel measured after 23 days", "format": "functional", "settings": "552 h, time 23 day"}}, "data": [{"smiles": "CC(C)(O)[C@H]1CC[C@@](C)([C@H]2CC[C@]3(C)[C@@H]2[C@H](O)C[C@@H]2[C@@]4(C)CC[C@H](NC(=O)[C@@H]5CCCN5)C(C)(C)[C@@H]4CC[C@]23C)O1", "values": [{"measurement": "viability at 10 µM", "setting": "[1]", "result": 123, "unit": "%"}, {"measurement": "inhibition at 1 h", "setting": "P-gp (ABCB1) ATPase", "result": 13, "unit": "%"}, {"measurement": "inhibition (INH)", "setting": "[2]", "result": "Not Active"}, {"measurement": "Drug uptake", "setting": "[3]", "result": "Active"}, {"measurement": "Activity", "setting": "[4]", "result": "Dose-Dependent Effect"}, {"measurement": "Activity", "setting": "[5]", "result": "Not Active"}, {"measurement": "Activity", "setting": "[6]", "result": "Not Active"}, {"measurement": "Activity", "setting": "[7]", "result": "Active"}, {"measurement": "Activity", "setting": "[8]", "result": 20.53, "unit": "%"}, {"measurement": "inhibition in vivo at 20 mg/kg", "setting": "[9]", "result": 58.1, "unit": "%"}]}]}
